# Measured values: patent publication US20220411380A1, “ACID ADDITION SALT OF RORy REGULATOR” (JIANGSU HENGRUI MEDICINE CO., LTD., priority 2019, published 2022)
# What was measured:
# Type in all cases: physicochemical
# [1] = Long-term/accelerated stability study of crystalline form α of hydrochloride and crystalline form I of hydrobromide
# Protocol: The crystalline form α of the hydrochloride of the compound of formula II was let stand in conditions of 25° C./60% RH and 40° C./75% RH to examine its stability.
# The crystalline form I of the hydrobromide of the compound of formula II was let stand in conditions of 25° C./60% RH and 40° C./75% RH to examine its stability.
# [2] = DVS (dynamic vapor sorption) characterization
# Protocol: DVS refers to dynamic vapor sorption: The measurement was conducted with a Surface Measurement Systems advantage 2 at 25° C., starting from 50% humidity in humidity range of 0%-95% with a step size of 10%. The judging criterion was that the mass change of each gradient dM/dT is less than 0.002 and TMAX is less than 360 min in two circles.
# [3] = Influencing factor study of crystalline form α of hydrochloride and crystalline form I of hydrobromide
# Protocol: Sample of the crystalline form α of the hydrochloride and the crystalline form I of the hydrobromide of the compound of formula II were let stand open to examine the stability of the samples in conditions of illumination (4500 Lux), high temperature (40° C. and 60° C.) and high humidity (RH 75% and RH 92.5%) in a period of 30 days.
structure (smiles),measurement,setting,value
Cl.NC(=O)C[C@H](c1ccc(S(=O)(=O)CC2CC2)cc1)c1nc2cc(-c3ccccc3OC(F)F)c(Cl)cc2[nH]1 [Crystalline form α of hydrochloride of compound of formula I],Chiral purity (%),"[1]; 25° C., 60% RH, Day 7",99.131%
same,Color and appearance,"[1]; 25° C., 60% RH, Day 7",White solid
same,Crystalline form,"[1]; 25° C., 60% RH, Day 7",Not changed
same,Main peak purity (%),"[1]; 25° C., 60% RH, Day 7",96.915%
same,Chiral purity (%),"[1]; 25° C., 60% RH, Day 14",99.111%
same,Color and appearance,"[1]; 25° C., 60% RH, Day 14",White solid
same,Crystalline form,"[1]; 25° C., 60% RH, Day 14",Not changed
same,Main peak purity (%),"[1]; 25° C., 60% RH, Day 14",96.831%
same,Chiral purity (%),"[1]; 25° C., 60% RH, Month 1",99.225%
same,Chloride ion content (%),"[1]; 25° C., 60% RH, Month 1",5.75%
same,Color and appearance,"[1]; 25° C., 60% RH, Month 1",White solid
same,Crystalline form,"[1]; 25° C., 60% RH, Month 1",Not changed
same,Main peak purity (%),"[1]; 25° C., 60% RH, Month 1",96.906%
same,Chiral purity (%),"[1]; 25° C., 60% RH, Month 2",99.332%
same,Chloride ion content (%),"[1]; 25° C., 60% RH, Month 2",5.74%
same,Color and appearance,"[1]; 25° C., 60% RH, Month 2",White solid
same,Crystalline form,"[1]; 25° C., 60% RH, Month 2",Not changed
same,Main peak purity (%),"[1]; 25° C., 60% RH, Month 2",96.883%
same,Chiral purity (%),"[1]; 25° C., 60% RH, Month 3",99.239%
same,Color and appearance,"[1]; 25° C., 60% RH, Month 3",White solid
same,Crystalline form,"[1]; 25° C., 60% RH, Month 3",Not changed
same,Main peak purity (%),"[1]; 25° C., 60% RH, Month 3",96.749%
same,Chiral purity (%),"[1]; 25° C., 60% RH, Month 6",99.187%
same,Chloride ion content (%),"[1]; 25° C., 60% RH, Month 6",5.85%
same,Color and appearance,"[1]; 25° C., 60% RH, Month 6",White solid
same,Crystalline form,"[1]; 25° C., 60% RH, Month 6",Not changed
same,Main peak purity (%),"[1]; 25° C., 60% RH, Month 6",96.170%
same,Chiral purity (%),"[1]; 40° C., 75% RH, Day 7",99.137%
same,Color and appearance,"[1]; 40° C., 75% RH, Day 7",White solid
same,Crystalline form,"[1]; 40° C., 75% RH, Day 7",Not changed
same,Main peak purity (%),"[1]; 40° C., 75% RH, Day 7",96.906%
same,Chiral purity (%),"[1]; 40° C., 75% RH, Day 14",99.104%
same,Color and appearance,"[1]; 40° C., 75% RH, Day 14",White solid
same,Crystalline form,"[1]; 40° C., 75% RH, Day 14",Not changed
same,Main peak purity (%),"[1]; 40° C., 75% RH, Day 14",96.902%
same,Chiral purity (%),"[1]; 40° C., 75% RH, Month 1",99.206%
same,Chloride ion content (%),"[1]; 40° C., 75% RH, Month 1",5.44%
same,Color and appearance,"[1]; 40° C., 75% RH, Month 1",White solid
same,Crystalline form,"[1]; 40° C., 75% RH, Month 1",Not changed
same,Main peak purity (%),"[1]; 40° C., 75% RH, Month 1",96.846%
same,Chiral purity (%),"[1]; 40° C., 75% RH, Month 2",99.292%
same,Chloride ion content (%),"[1]; 40° C., 75% RH, Month 2",5.86%
same,Color and appearance,"[1]; 40° C., 75% RH, Month 2",White solid
same,Crystalline form,"[1]; 40° C., 75% RH, Month 2",Not changed
same,Main peak purity (%),"[1]; 40° C., 75% RH, Month 2",96.780%
same,Chiral purity (%),"[1]; 40° C., 75% RH, Month 3",99.149%
same,Color and appearance,"[1]; 40° C., 75% RH, Month 3",White solid
same,Crystalline form,"[1]; 40° C., 75% RH, Month 3",Not changed
same,Main peak purity (%),"[1]; 40° C., 75% RH, Month 3",96.664%
same,Chiral purity (%),"[1]; 40° C., 75% RH, Month 6",98.972%
same,Chloride ion content (%),"[1]; 40° C., 75% RH, Month 6",5.98%
same,Color and appearance,"[1]; 40° C., 75% RH, Month 6",White solid
same,Crystalline form,"[1]; 40° C., 75% RH, Month 6",Not changed
same,Main peak purity (%),"[1]; 40° C., 75% RH, Month 6",95.990%
same,Chiral purity (%),"[1]; Initial, 0",99.14%
same,Chloride ion content (%),"[1]; Initial, 0",5.75%
same,Color and appearance,"[1]; Initial, 0",White solid
same,Crystalline form,"[1]; Initial, 0",Crystalline
same,Main peak purity (%),"[1]; Initial, 0",96.925%
same,Stability (conclusion of long-term/accelerated study),"[1]; long term and acceleration, 6 months",good physical and chemical stability
same,Crystalline form before and after DVS (XRPD comparison),[2]; 0-95% humidity change,crystalline form did not change during DVS
same,DVS weight change,"[2]; 25° C., 20.0% RH to 80.0% RH",0.549%
same,Hygroscopicity,"[2]; DVS, 25° C., 20.0% RH to 80.0% RH",slightly hygroscopic
same,Vapor sorption,"[2]; accelerated test condition, 70% humidity",about 0.574%
same,Vapor sorption,"[2]; extreme condition, 90% humidity",about 1.040%
same,Vapor sorption,"[2]; normal storage condition, 60% humidity/25° C.",about 0.463%
same,Chiral purity (%),"[3]; 40° C., 7 days",99.131%
same,Color and appearance,"[3]; 40° C., 7 days",White solid
same,Crystalline form,"[3]; 40° C., 7 days",Not changed
same,Main peak purity (%),"[3]; 40° C., 7 days",96.915%
same,Chiral purity (%),"[3]; 40° C., 14 days",99.115%
same,Color and appearance,"[3]; 40° C., 14 days",White solid
same,Crystalline form,"[3]; 40° C., 14 days",Not changed
same,Main peak purity (%),"[3]; 40° C., 14 days",96.921%
same,Chiral purity (%),"[3]; 40° C., 30 days",99.207%
same,Chloride ion content (%),"[3]; 40° C., 30 days",5.75%
same,Color and appearance,"[3]; 40° C., 30 days",White solid
same,Crystalline form,"[3]; 40° C., 30 days",Not changed
same,Main peak purity (%),"[3]; 40° C., 30 days",96.824%
same,Chiral purity (%),"[3]; 60° C., 7 days",99.136%
same,Color and appearance,"[3]; 60° C., 7 days",White solid
same,Crystalline form,"[3]; 60° C., 7 days",Not changed
same,Main peak purity (%),"[3]; 60° C., 7 days",96.884%
same,Chiral purity (%),"[3]; 60° C., 14 days",99.106%
same,Color and appearance,"[3]; 60° C., 14 days",White solid
same,Crystalline form,"[3]; 60° C., 14 days",Not changed
same,Main peak purity (%),"[3]; 60° C., 14 days",96.907%
same,Chiral purity (%),"[3]; 60° C., 30 days",99.232%
same,Chloride ion content (%),"[3]; 60° C., 30 days",5.65%
same,Color and appearance,"[3]; 60° C., 30 days",White solid
same,Crystalline form,"[3]; 60° C., 30 days",Not changed
same,Main peak purity (%),"[3]; 60° C., 30 days",96.814%
same,Chiral purity (%),"[3]; 75% RH, 7 days",99.138%
same,Color and appearance,"[3]; 75% RH, 7 days",White solid
same,Crystalline form,"[3]; 75% RH, 7 days",Not changed
same,Main peak purity (%),"[3]; 75% RH, 7 days",96.916%
same,Chiral purity (%),"[3]; 75% RH, 14 days",99.130%
same,Color and appearance,"[3]; 75% RH, 14 days",White solid
same,Crystalline form,"[3]; 75% RH, 14 days",Not changed
same,Main peak purity (%),"[3]; 75% RH, 14 days",96.908%
same,Chiral purity (%),"[3]; 75% RH, 30 days",99.220%
same,Chloride ion content (%),"[3]; 75% RH, 30 days",5.68%
same,Color and appearance,"[3]; 75% RH, 30 days",White solid
same,Crystalline form,"[3]; 75% RH, 30 days",Not changed
same,Main peak purity (%),"[3]; 75% RH, 30 days",96.903%
same,Chiral purity (%),"[3]; 92.5% RH, 7 days",99.132%
same,Color and appearance,"[3]; 92.5% RH, 7 days",White solid
same,Crystalline form,"[3]; 92.5% RH, 7 days",Not changed
same,Main peak purity (%),"[3]; 92.5% RH, 7 days",96.912%
same,Chiral purity (%),"[3]; 92.5% RH, 14 days",99.111%
same,Color and appearance,"[3]; 92.5% RH, 14 days",White solid
same,Crystalline form,"[3]; 92.5% RH, 14 days",Not changed
same,Main peak purity (%),"[3]; 92.5% RH, 14 days",96.908%
same,Chiral purity (%),"[3]; 92.5% RH, 30 days",99.211%
same,Chloride ion content (%),"[3]; 92.5% RH, 30 days",5.67%
same,Color and appearance,"[3]; 92.5% RH, 30 days",White solid
same,Crystalline form,"[3]; 92.5% RH, 30 days",Not changed
same,Main peak purity (%),"[3]; 92.5% RH, 30 days",96.880%
same,Chiral purity (%),"[3]; 4500 Lux, 7 days",99.137%
same,Color and appearance,"[3]; 4500 Lux, 7 days",White solid
same,Crystalline form,"[3]; 4500 Lux, 7 days",Not changed
same,Main peak purity (%),"[3]; 4500 Lux, 7 days",96.911%
same,Chiral purity (%),"[3]; 4500 Lux, 14 days",99.139%
same,Color and appearance,"[3]; 4500 Lux, 14 days",White solid
same,Crystalline form,"[3]; 4500 Lux, 14 days",Not changed
same,Main peak purity (%),"[3]; 4500 Lux, 14 days",96.911%
same,Chiral purity (%),"[3]; 4500 Lux, 30 days",99.216%
same,Chloride ion content (%),"[3]; 4500 Lux, 30 days",5.71%
same,Color and appearance,"[3]; 4500 Lux, 30 days",White solid
same,Crystalline form,"[3]; 4500 Lux, 30 days",Not changed
same,Main peak purity (%),"[3]; 4500 Lux, 30 days",96.810%
same,Chiral purity (%),"[3]; Initial, 0 days",99.14%
same,Chloride ion content (%),"[3]; Initial, 0 days",5.75%
same,Color and appearance,"[3]; Initial, 0 days",White solid
same,Crystalline form,"[3]; Initial, 0 days",Crystalline
same,Main peak purity (%),"[3]; Initial, 0 days",96.925%
same,Stability (conclusion of influencing factor study),"[3]; illumination, 40° C. and 60° C., high humidities of 75% and 92.5%",good physical and chemical stabilities
